Measured values reported in EP3046573B1, “AMYLIN ANALOGUES” (Zealand Pharma A/S, priority 2013, dated 2015).
pEC50: −log10 of the molar value. Where two headings read alike, the source gives them in different places. Numbered stars: 1 amine (or outer) side, 2 acyl side, 3 side chain; on linkers, the order of the positions; unused ones are H or OH. Bridge positions count the residues as written; N and C are the ends. Square brackets hold non-standard residues; d marks the D form. Peptide text beside a SMILES is read from it. * marks the point of attachment. C20 diacid = O=C(O)CCCCCCCCCCCCCCCCCCC(=O)*; γGlu = O=C(O)[C@H](CCC(=O)[*:2])N[*:1]; NMeI = CC[C@H](C)[C@H](NC)C(=O)O; Sar = CNCC(=O)O

Tests used:
[1] = biological target: T1, human calcitonin receptor (hCTR2) (Homo sapiens, UniProt P30988); experiment: hCTR2 assay: induction of cAMP (AlphaScreen cAMP Assay kit) in COS7 cells expressing hCTR2; format: cell-based
T1 construct: expressed in transfected cells
T1 sequence (P30988 25-474): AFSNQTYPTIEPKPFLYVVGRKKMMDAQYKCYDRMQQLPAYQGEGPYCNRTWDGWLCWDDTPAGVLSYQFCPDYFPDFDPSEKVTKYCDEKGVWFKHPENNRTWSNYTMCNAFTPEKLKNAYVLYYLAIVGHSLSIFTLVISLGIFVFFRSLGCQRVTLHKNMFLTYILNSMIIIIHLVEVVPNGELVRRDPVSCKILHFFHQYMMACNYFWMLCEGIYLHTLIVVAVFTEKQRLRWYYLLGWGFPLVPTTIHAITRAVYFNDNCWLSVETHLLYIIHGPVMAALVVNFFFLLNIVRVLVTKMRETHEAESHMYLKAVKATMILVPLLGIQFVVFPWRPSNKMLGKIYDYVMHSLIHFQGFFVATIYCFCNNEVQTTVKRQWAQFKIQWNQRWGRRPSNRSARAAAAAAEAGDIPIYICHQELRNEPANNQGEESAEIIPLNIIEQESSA
How it was run: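 Peptide-induced cAMP in hCTR2-expressing COS7 cells, 15 min at 37° C with phosphodiesterase inhibitor IBMX (100 µM), detected by AlphaScreen; potency from 4PL curves.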

[2] = biological target: T2, human amylin receptor 3 (hAMYR3) consisting of hCTR2 co-expressed with human Receptor Activity Modifying Protein 3 (hRAMP3) (Homo sapiens, UniProt O60896+P30988); experiment: hAMYR3 assay: induction of cAMP (AlphaScreen cAMP Assay kit) in COS7 cells expressing hAMYR3; format: cell-based
T2 construct: expressed in transfected cells
T2 sequence (P30988 25-474): T1 sequence (P30988 25-474)
T2 sequence (O60896 24-148 partner): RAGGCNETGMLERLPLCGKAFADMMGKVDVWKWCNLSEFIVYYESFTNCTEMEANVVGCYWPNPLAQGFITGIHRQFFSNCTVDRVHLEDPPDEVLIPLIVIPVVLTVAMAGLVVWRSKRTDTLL
How it was run: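 cAMP accumulation read by AlphaScreen in lysates of RAMP-naive COS7 cells stably transfected with hCTR2 plus hRAMP3. Cells exposed to peptide dilutions for 15 min, 37° C, with 100 µM IBMX; 4PL fitting gave EC50 and efficacy relative to pramlintide.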

[3] = Solubility assessment (turbidity absorbance at 325 nm); format: physicochemical; conditions: stock 2 mg/ml diluted 1:1, ambient temperature (typically 25°C), n=1; for Solubility, Acetate buffer pH 4: 100 mM acetate buffer pH 4.0; for Solubility, Acetate buffer pH 5: 100 mM acetate buffer pH 5.0; for Solubility, Histidine buffer pH 6: 100 mM histidine buffer pH 6.0; for Solubility, Histidine buffer pH 7: 100 mM histidine buffer pH 7.0; for Solubility, Phosphate buffer pH 6: 100 mM phosphate buffer pH 6.0; for Solubility, Phosphate buffer pH 7: 100 mM phosphate buffer pH 7.0; for Solubility, Phosphate buffer pH 7.5: 100 mM phosphate buffer pH7.5
How it was run: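 Read-out: turbidity as absorbance at 325 nm (280 nm also read), single samples, ambient temperature of typically 25°C. Samples were a 1:1 mix of 2 mg/ml stock (water, pH 2.5) with 100 mM acetate, histidine or phosphate buffers spanning pH 4.0–7.5. Cut-off: A325 ≤ 0.02 indicates ≥ 1 mg/ml.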

[4] = cAMP induction in COS7 cells expressing hCTR2, average of a minimum of 3 determinations, read-out: hCTR2 EC50
[5] = cAMP induction in COS7 cells expressing hAMYR3, average of a minimum of 3 determinations, read-out: hAMY R3 EC50

SMILES | pEC50 [1, 4] | pEC50 [2, 5] | Solubility, Acetate buffer pH 4 [3] | Solubility, Acetate buffer pH 5 [3] | Solubility, Histidine buffer pH 6 [3] | Solubility, Histidine buffer pH 7 [3] | Solubility, Phosphate buffer pH 6 [3] | Solubility, Phosphate buffer pH 7 [3] | Solubility, Phosphate buffer pH 7.5 [3] | pEC50 [1] | pEC50 [2]
CC[C@H](C)[C@@H](C(=O)N[C@@H](CC(C)C)C(=O)N[C@@H](CO)C(=O)N[C@@H](CO)C(=O)N[C@H](C(=O)N[C@@H](CC(N)=O)C(=O)N[C@H](C(=O)NCC(=O)N[C@@H](CO)C(=O)N[C@@H](CC(N)=O)C(=O)N[C@H](C(=O)N1CCC[C@H]1C(=O)NC)[C@@H](C)O)C(C)C)[C@@H](C)O)N(C)C(=O)CN(C)C(=O)[C@H](Cc1ccccc1)NC(=O)[C@H](CC(N)=O)NC(=O)[C@H](CC(N)=O)NC(=O)[C@H](CO)NC(=O)[C@H](CO)NC(=O)[C@H](CCCNC(=N)N)NC(=O)[C@H](Cc1c[nH]cn1)NC(=O)[C@H](CC(C)C)NC(=O)[C@H](Cc1ccccc1)NC(=O)[C@H](CCC(=O)O)NC(=O)[C@H](C)NC(=O)[C@H](CC(C)C)NC(=O)[C@H](CCCNC(=N)N)NC(=O)[C@H](CCC(N)=O)NC(=O)[C@@H](NC(=O)[C@H](C)NC(=O)[C@@H]1CSSC[C@H](NC(=O)[C@H](CCCNC(=N)N)NC(=O)CC[C@H](NC(=O)CCCCCCCCCCCCCCCCCCC(=O)O)C(=O)O)C(=O)N[C@@H](CC(N)=O)C(=O)N[C@@H]([C@@H](C)O)C(=O)N[C@@H](C)C(=O)N[C@@H]([C@@H](C)O)C(=O)N1)[C@@H](C)O [Compound 153, [19CD]-isoGlu-RC()NTATC()ATQRLAEFLHRSSNNF-Gly(Me)-Ile(Me)-LSSTNVGSNTP-NHMe] ({C20 diacid-γGlu}-RCNTATCATQRLAEFLHRSSNNF[Sar][NMeI]LSSTNVGSNTP-NHMe; disulfide 2-7) | 9.14 | 8.21 | SS (SS indicates solubility ≥ 1mg/ml) | SS (SS indicates solubility ≥ 1mg/ml) | II (II indicates solubility ≤ 1 mg/ml) | SS (SS indicates solubility ≥ 1mg/ml) | SS (SS indicates solubility ≥ 1mg/ml) | SS (SS indicates solubility ≥ 1mg/ml) | SS (SS indicates solubility ≥ 1mg/ml) |  | 
CC[C@H](C)[C@@H](C(=O)N[C@@H](CC(C)C)C(=O)N[C@@H](CO)C(=O)N[C@@H](CO)C(=O)N[C@H](C(=O)N[C@@H](CC(N)=O)C(=O)N[C@H](C(=O)NCC(=O)N[C@@H](CO)C(=O)N[C@@H](CC(N)=O)C(=O)N[C@H](C(=O)N[C@@H](Cc1ccc(O)cc1)C(=O)NC)[C@@H](C)O)C(C)C)[C@@H](C)O)N(C)C(=O)[C@H](C)NC(=O)CN(C)C(=O)[C@H](Cc1ccccc1)NC(=O)[C@H](CC(N)=O)NC(=O)[C@H](CC(N)=O)NC(=O)[C@H](CO)NC(=O)[C@H](CO)NC(=O)[C@H](CCCNC(=N)N)NC(=O)[C@H](Cc1c[nH]cn1)NC(=O)[C@H](CC(C)C)NC(=O)[C@H](Cc1ccccc1)NC(=O)[C@H](CCC(=O)O)NC(=O)[C@H](C)NC(=O)[C@H](CC(C)C)NC(=O)[C@H](CCCNC(=N)N)NC(=O)[C@H](CCC(N)=O)NC(=O)[C@@H](NC(=O)[C@H](C)NC(=O)[C@@H]1CSSC[C@H](NC(=O)[C@H](CCCNC(=N)N)NC(=O)CC[C@H](NC(=O)CCCCCCCCCCCCCCCCCCC(=O)O)C(=O)O)C(=O)N[C@@H](CC(N)=O)C(=O)N[C@@H]([C@@H](C)O)C(=O)N[C@@H](C)C(=O)N[C@@H]([C@@H](C)O)C(=O)N1)[C@@H](C)O [Compound 154, [19CD]-isoGlu-RC()NTATC()ATQRLAEFLHRSSNNF-Gly(Me)-A-Ile(Me)-LSSTNVGSNTY-NHMe] ({C20 diacid-γGlu}-RCNTATCATQRLAEFLHRSSNNF[Sar]A[NMeI]LSSTNVGSNTY-NHMe; disulfide 2-7) |  |  | SS (SS indicates solubility ≥ 1mg/ml) | SS (SS indicates solubility ≥ 1mg/ml) | SS (SS indicates solubility ≥ 1mg/ml) | II (II indicates solubility ≤ 1 mg/ml) | II (II indicates solubility ≤ 1 mg/ml) | II (II indicates solubility ≤ 1 mg/ml) | II (II indicates solubility ≤ 1 mg/ml) | 9.26 | 8.20
CC[C@H](C)[C@@H](C(=O)N[C@@H](CC(C)C)C(=O)N[C@@H](CO)C(=O)N[C@@H](CO)C(=O)N[C@H](C(=O)N[C@@H](CC(N)=O)C(=O)N[C@H](C(=O)NCC(=O)N[C@@H](CO)C(=O)N[C@@H](CC(N)=O)C(=O)N[C@H](C(=O)N[C@@H](Cc1ccc(O)cc1)C(=O)NC)[C@@H](C)O)C(C)C)[C@@H](C)O)N(C)C(=O)CN(C)C(=O)[C@H](Cc1ccccc1)NC(=O)[C@H](CC(N)=O)NC(=O)[C@H](CC(N)=O)NC(=O)[C@H](CO)NC(=O)[C@H](CO)NC(=O)[C@H](CCCNC(=N)N)NC(=O)[C@H](Cc1c[nH]cn1)NC(=O)[C@H](CC(C)C)NC(=O)[C@H](Cc1ccccc1)NC(=O)[C@H](CCC(=O)O)NC(=O)[C@H](C)NC(=O)[C@H](CC(C)C)NC(=O)[C@H](CCCNC(=N)N)NC(=O)[C@H](CCC(N)=O)NC(=O)[C@@H](NC(=O)[C@H](C)NC(=O)[C@@H]1CSSC[C@H](NC(=O)[C@H](CCCNC(=N)N)NC(=O)CC[C@H](NC(=O)CCCCCCCCCCCCCCCCCCC(=O)O)C(=O)O)C(=O)N[C@@H](CC(N)=O)C(=O)N[C@@H]([C@@H](C)O)C(=O)N[C@@H](C)C(=O)N[C@@H]([C@@H](C)O)C(=O)N1)[C@@H](C)O [Compound 155, [19CD]-isoGlu-RC()NTATC()ATQRLAEFLHRSSNNF-Gly(Me)-Ile(Me)-LSSTNVGSNTY-NHMe] ({C20 diacid-γGlu}-RCNTATCATQRLAEFLHRSSNNF[Sar][NMeI]LSSTNVGSNTY-NHMe; disulfide 2-7) | 9.17 | 8.28 | SS (SS indicates solubility ≥ 1mg/ml) | SS (SS indicates solubility ≥ 1mg/ml) | II (II indicates solubility ≤ 1 mg/ml) | II (II indicates solubility ≤ 1 mg/ml) | II (II indicates solubility ≤ 1 mg/ml) | II (II indicates solubility ≤ 1 mg/ml) | II (II indicates solubility ≤ 1 mg/ml) |  | 
